In PubChem BioAssay (NCI):
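A five-concentration, 48-hour dose response in 96-well plates underlies each endpoint, interpolated linearly between surrounding concentrations. TGI marks complete inhibition of growth.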

What was measured:
Experiment in all cases: NCI anticancer screen, dose series, 48 h
786-0 renal = test system: 786-0 renal
A498 renal = test system: A498 renal
A549 NSCLC = test system: A549 NSCLC
ACHN renal = test system: ACHN renal
BT-549 breast = test system: BT-549 breast
CAKI-1 renal = test system: CAKI-1 renal
CCRF-CEM leukemia = test system: CCRF-CEM leukemia
COLO 205 colon = test system: COLO 205 colon
DU-145 prostate = test system: DU-145 prostate
EKVX NSCLC = test system: EKVX NSCLC
HCC-2998 colon = test system: HCC-2998 colon
HCT-116 colon = test system: HCT-116 colon
HCT-15 colon = test system: HCT-15 colon
HL-60(TB) leukemia = test system: HL-60(TB) leukemia
HOP-62 NSCLC = test system: HOP-62 NSCLC
HOP-92 NSCLC = test system: HOP-92 NSCLC
HS 578T breast = test system: HS 578T breast
HT29 colon = test system: HT29 colon
IGROV1 ovarian = test system: IGROV1 ovarian
K-562 leukemia = test system: K-562 leukemia
KM12 colon = test system: KM12 colon
LOX IMVI melanoma = test system: LOX IMVI melanoma
M14 melanoma = test system: M14 melanoma
MALME-3M melanoma = test system: MALME-3M melanoma
MCF7 breast = test system: MCF7 breast
MDA-MB-231 breast = test system: MDA-MB-231 breast
MDA-MB-435 = test system: MDA-MB-435
MDA-N = test system: MDA-N
MOLT-4 leukemia = test system: MOLT-4 leukemia
NCI-H226 lung = test system: NCI-H226 lung
NCI-H23 lung = test system: NCI-H23 lung
NCI-H460 lung = test system: NCI-H460 lung
NCI-H522 lung = test system: NCI-H522 lung
NCI/ADR-RES ovarian = test system: NCI/ADR-RES ovarian
OVCAR-3 ovarian = test system: OVCAR-3 ovarian
OVCAR-4 ovarian = test system: OVCAR-4 ovarian
OVCAR-5 ovarian = test system: OVCAR-5 ovarian
OVCAR-8 ovarian = test system: OVCAR-8 ovarian
PC-3 prostate = test system: PC-3 prostate
RPMI-8226 leukemia = test system: RPMI-8226 leukemia
RXF 393 renal = test system: RXF 393 renal
SF-268 CNS = test system: SF-268 CNS
SF-295 CNS = test system: SF-295 CNS
SF-539 CNS = test system: SF-539 CNS
SK-MEL-2 melanoma = test system: SK-MEL-2 melanoma
SK-MEL-28 melanoma = test system: SK-MEL-28 melanoma
SK-MEL-5 melanoma = test system: SK-MEL-5 melanoma
SK-OV-3 ovarian = test system: SK-OV-3 ovarian
SN12C renal = test system: SN12C renal
SNB-19 CNS = test system: SNB-19 CNS
SNB-75 CNS = test system: SNB-75 CNS
SW-620 colon = test system: SW-620 colon
T-47D breast = test system: T-47D breast
TK-10 renal = test system: TK-10 renal
U251 CNS = test system: U251 CNS
UACC-257 melanoma = test system: UACC-257 melanoma
UACC-62 melanoma = test system: UACC-62 melanoma
UO-31 renal = test system: UO-31 renal

COc1ccc(/C=C2\CC3C4CC=C5C[C@@H](N6CCCC6)CC[C@]5(C)C4CC[C@]3(C)[C@H]2O)cc1OC (stereo partly drawn)
TGI (786-0 renal): 11.1 µM
TGI (A498 renal): 17 µM
TGI (A549 NSCLC): 17.6 µM
TGI (ACHN renal): 16 µM
TGI (BT-549 breast): 16.5 µM
TGI (CAKI-1 renal): 16.7 µM
TGI (CCRF-CEM leukemia): 50 µM
TGI (COLO 205 colon): 15.8 µM
TGI (DU-145 prostate): 22.4 µM
TGI (EKVX NSCLC): 16.9 µM
TGI (HCC-2998 colon): 11.7 µM
TGI (HCT-116 colon): 15.8 µM
TGI (HCT-15 colon): 14.2 µM
TGI (HL-60(TB) leukemia): 42.4 µM
TGI (HOP-62 NSCLC): 12.3 µM
TGI (HOP-92 NSCLC): 23.4 µM
TGI (HS 578T breast): 26.9 µM
TGI (HT29 colon): 15.3 µM
TGI (IGROV1 ovarian): 21.4 µM
TGI (K-562 leukemia): 37.5 µM
TGI (KM12 colon): 14.2 µM
TGI (LOX IMVI melanoma): 18.8 µM
TGI (M14 melanoma): 16.8 µM
TGI (MALME-3M melanoma): 16.7 µM
TGI (MCF7 breast): 14.8 µM
TGI (MDA-MB-231 breast): 15.1 µM
TGI (MDA-MB-435): 14.3 µM
TGI (MDA-N): 14.9 µM
TGI (MOLT-4 leukemia): 38.3 µM
TGI (NCI-H226 lung): 20.2 µM
TGI (NCI-H23 lung): 17.6 µM
TGI (NCI-H460 lung): 17.4 µM
TGI (NCI-H522 lung): 16 µM
TGI (NCI/ADR-RES ovarian): 19.2 µM
TGI (OVCAR-3 ovarian): 16.8 µM
TGI (OVCAR-4 ovarian): 17.1 µM
TGI (OVCAR-5 ovarian): 19 µM
TGI (OVCAR-8 ovarian): 23.8 µM
TGI (PC-3 prostate): 12.6 µM
TGI (RPMI-8226 leukemia): 22.1 µM
TGI (RXF 393 renal): 25.2 µM
TGI (SF-268 CNS): 22.4 µM
TGI (SF-295 CNS): 11.5 µM
TGI (SF-539 CNS): 15.1 µM
TGI (SK-MEL-2 melanoma): 14.3 µM
TGI (SK-MEL-28 melanoma): 20.1 µM
TGI (SK-MEL-5 melanoma): 14.3 µM
TGI (SK-OV-3 ovarian): 17.5 µM
TGI (SN12C renal): 18.3 µM
TGI (SNB-19 CNS): 19.1 µM
TGI (SNB-75 CNS): 22.9 µM
TGI (SW-620 colon): 50 µM
TGI (T-47D breast): 26.6 µM
TGI (TK-10 renal): 19.9 µM
TGI (U251 CNS): 15.8 µM
TGI (UACC-257 melanoma): 15.4 µM
TGI (UACC-62 melanoma): 16 µM
TGI (UO-31 renal): 18.5 µM

COc1ccccc1OC/C(N=Cc1cccnc1)=N/NC(=O)c1ccncc1
TGI (786-0 renal): > 100 µM
TGI (A498 renal): > 100 µM
TGI (A549 NSCLC): > 100 µM
TGI (ACHN renal): > 100 µM
TGI (BT-549 breast): > 100 µM
TGI (CAKI-1 renal): > 100 µM
TGI (CCRF-CEM leukemia): > 100 µM
TGI (COLO 205 colon): > 100 µM
TGI (DU-145 prostate): > 100 µM
TGI (EKVX NSCLC): > 100 µM
TGI (HCC-2998 colon): > 100 µM
TGI (HCT-116 colon): > 100 µM
TGI (HCT-15 colon): > 100 µM
TGI (HL-60(TB) leukemia): > 100 µM
TGI (HOP-62 NSCLC): > 100 µM
TGI (HOP-92 NSCLC): > 100 µM
TGI (HS 578T breast): > 100 µM
TGI (HT29 colon): > 100 µM
TGI (IGROV1 ovarian): > 100 µM
TGI (K-562 leukemia): > 100 µM
TGI (KM12 colon): > 100 µM
TGI (LOX IMVI melanoma): > 100 µM
TGI (M14 melanoma): > 100 µM
TGI (MALME-3M melanoma): > 100 µM
TGI (MCF7 breast): > 100 µM
TGI (MDA-MB-231 breast): > 100 µM
TGI (MDA-MB-435): > 100 µM
TGI (MDA-N): > 100 µM
TGI (MOLT-4 leukemia): > 100 µM
TGI (NCI-H226 lung): > 100 µM
TGI (NCI-H23 lung): > 100 µM
TGI (NCI-H460 lung): > 100 µM
TGI (NCI-H522 lung): > 100 µM
TGI (NCI/ADR-RES ovarian): > 100 µM
TGI (OVCAR-3 ovarian): > 100 µM
TGI (OVCAR-4 ovarian): > 100 µM
TGI (OVCAR-5 ovarian): > 100 µM
TGI (OVCAR-8 ovarian): > 100 µM
TGI (PC-3 prostate): > 100 µM
TGI (RPMI-8226 leukemia): > 100 µM
TGI (RXF 393 renal): > 100 µM
TGI (SF-268 CNS): > 100 µM
TGI (SF-295 CNS): > 100 µM
TGI (SF-539 CNS): > 100 µM
TGI (SK-MEL-2 melanoma): > 100 µM
TGI (SK-MEL-28 melanoma): > 100 µM
TGI (SK-OV-3 ovarian): > 100 µM
TGI (SNB-19 CNS): > 100 µM
TGI (SNB-75 CNS): > 100 µM
TGI (SW-620 colon): > 100 µM
TGI (T-47D breast): > 100 µM
TGI (TK-10 renal): > 100 µM
TGI (U251 CNS): > 100 µM
TGI (UACC-257 melanoma): > 100 µM
TGI (UACC-62 melanoma): > 100 µM
